Measurements from US20140275277A1, “PHARMACEUTICAL COMPOSITION OF S-KETAMINE HYDROCHLORIDE” (JANSSEN PHARMACEUTICA NV, priority 2013, published 2014).

What was measured:
[1] = test system: environmental isolate Staphylococcus haemolyticus; test: Microbial challenge test (Example 1); type: cell-based; details: spike 10^5-10^6 CFU/ml
Source text: A challenge test was initiated to investigate whether the formulation could prevent microorganisms from proliferating. The challenge test consisted of challenging the formulation with a prescribed inoculum of microorganisms. The inoculated formulation was then stored at room temperature and at specified time intervals a sample was withdrawn to count the microorganisms in the sample.

[2] = test system: A. brasiliensis; test: Full AET Challenge Test (Example 2); type: cell-based, Aspergillus brasiliensis; details: after 28 days of incubation at room temperature; spike 10^5-10^6 CFU/ml
Description: (§1) The formulations listed in Table 3 were additionally subjected to a Full AET challenge, with results for the individual formulations are shown in Tables 5-8, below. Additionally, Table 9 below, provides results for a Full AET challenge of a reference formulation containing 0.00 mg/mL S-ketamine hydrochloride, denatonium benzoate (to mimic the taste of the S-ketamine HCl formulation(s)), and adjusted to pH 5.21 with 1N NaOH.

[3] = test system: C. albicans; test: Full AET Challenge Test (Example 2); type: cell-based, Candida albicans; details: after 28 days; spike 10^5-10^6 CFU/ml
Description: as §1

[4] = test system: P. aeruginosa; test: Full AET Challenge Test (Example 2); type: cell-based, Pseudomonas aeruginosa; details: after 28 days; spike 10^5-10^6 CFU/ml
Description: as §1

[5] = test system: S. aureus; test: Full AET Challenge Test (Example 2); type: cell-based, Staphylococcus aureus; details: after 28 days; spike 10^5-10^6 CFU/ml
Description: as §1

[6] = test system: E. coli; test: Full AET Challenge Test (Example 2); type: cell-based, Escherichia coli; details: after 28 days; spike 10^5-10^6 CFU/ml
Description: as §1

[7] = test system: M. luteus; test: Full AET Challenge Test (Example 2); type: cell-based, Micrococcus Luteus; details: after 28 days; spike 10^5-10^6 CFU/ml
Description: as §1

`CN[C@]1(c2ccccc2Cl)CCCCC1=O.Cl` [S-ketamine hydrochloride, (S)-2-(2-chlorophenyl)-2-(methylamino)cyclohexanone hydrochloride] was tested, and the “Effect on the original spike of Staphylococcus haemolyticus, in words” value [1] was “strong antimicrobial properties”, the “Effect on the original spike of Aspergillus brasiliensis, in words” value [2] was “some inhibitory activity” and the “Effect on the original spike of Candida albicans, in words” value [3] was “strong antimicrobial properties”. The “Effect on the original spike of Pseudomonas aeruginosa, in words” value [4] was “strong antimicrobial properties”, the “Effect on the original spike of Staphylococcus aureus, in words” value [5] was “strong antimicrobial properties” and the “Effect on the original spike of Escherichia coli, in words” value [6] was “strong antimicrobial properties”. For the same compound, the “Effect on the original spike of Micrococcus Luteus, in words” value [7] was “strong antimicrobial properties”.
